Measured values published in patent US9982011B2, “Legumain activated doxorubicin derivative as well as preparation method and application thereof” (priority 2012, dated 2018).

Legend:
[1] = tested on: 4T1 cells; experiment: Efficacy in 4T1 tumor metastasis (lung) model in BALB/C mice; type: in vivo; settings: lung, day 27; i.p. daily for 8 days; S1, S2 10 μmol/kg, doxorubicin hydrochloride 3 μmol/kg
Excerpt: Test purpose: to investigate the anti-tumor efficacy of S1 and S2 in a tumor metastasis treatment model from BALB/C mice.
Test drug: S1 and S2 injections, and doxorubicin hydrochloride injection, diluted to corresponding concentrations with physiological saline when testing.
1. Animal: BALB/C mice of 6-8 weeks old, all female.
1) 4T1 cells were purchased from American type culture collection (ATCC) and identified according the specification provided by ATCC. Cells were cultivated in DMEM culture medium containing 10% fetal bovine serum at 37° C. and 5% CO2. The cells were passaged for every three days and cells within the 15th passage were used.
2) Production of tumor metastasis. 10^6 […] were subcutaneously injected to the back of the BALB/C mice. Mice were randomly grouped after the tumor grew to about 1.5 cm. The subcutaneous tumor was removed by surgery and drug treatment began. Mice were killed after anesthesia on day 27. The whole lung was taken out and put into Bouin's solution for staining. The number of the tumor metastasized to lung was counted with anatomical microscope.
(§1) 3) Course of treatment. According to the clinical application of S1 and S2, drugs were intraperitoneally injected. A dose of 10 μmol/kg (<1/10 MTD) was used for the S1 treatment group, 10 μmol/kg (<1/10 MTD) for the S2 treatment group, and 3 μmol/kg (>1/2 MTD) for doxorubicin hydrochloride. The control group was administered with physiological saline. The drugs were administered daily for 8 days.

[2] = tested on: MDA-MB231 cells; experiment: Efficacy in MDA-MB231 tumor model in nude mice; type: in vivo; settings: i.p. twice weekly for three weeks, S1, S2 30 mg/kg, doxorubicin hydrochloride 4 mg/kg
Excerpt: Test purpose: to investigate the anti-tumor efficacy of S1 and S2 via mouse tumor treatment model.
Test drug: S1 and S2 injections, and doxorubicin hydrochloride injection, diluted to corresponding concentrations by physiological saline when testing.
1. Animal: nude mice of 6-8 weeks old, all female.
1) MDA-MB231 cells were purchased from American type culture collection (ATCC) and identified according the specification provided by ATCC.
2) Production of tumor. […] Mice were randomly grouped after the diameter of the tumor reached about 0.3 cm to 0.4 cm. Then treatment began.
as §1, with “According” for “3) Course of treatment. According”, “30 mg/kg (<1/2” for “10 μmol/kg (<1/10”, “4 mg/kg” for “3 μmol/kg”, “twice weekly” for “daily”, “three weeks.” for “8 days.”

## COc1cccc2c1C(=O)c1c(O)c3c(c(O)c1C2=O)CC(O)(C(=O)CO)CC3OC1CC(NC(=O)C(CC(C)C)NC(=O)C(CC(N)=O)NC(=O)C(C)NC(=O)C(C)NC(=O)CCCCCN2C(=O)C=CC2=O)C(O)C(C)O1 (stereo not drawn) [Example S1, EMC-AANL-Doxorubicin]
[1]
  Inhibitory rate on metastasis: 91.6%
  Number of metastasized tumor: 12 ± 4
[2]; 20 days
  Inhibitory rate of tumor, 20 days: 25.8%
[2]; 20 days, nude mice
  Size of tumor (mm^3), 20 days: 287.42 ± 30.52 mm^3
[2]; 38 days
  Inhibitory rate of tumor, 38 days: 68.5%
[2]; 38 days, nude mice
  Size of tumor (mm^3), 38 days: 678.49 ± 37.7 mm^3
